Results published in patent publication US20160145247A1, “Aminomethyl-Biaryl Derivatives Complement Factor D inhibitors and uses thereof” (NOVARTIS AG, priority 2013, published 2016).
pIC50: −log10 of the molar value. “And” between values parts separate entries of the source, which are not always exact repeats. Equal values may be shown once.

Target: T1, factor D (Homo sapiens, UniProt P00746)
T1 construct: made in house; host or cells: E. coli
Test: factor D inhibition assay of Biological Example 2
Format: biochemical

T1 sequence (P00746 26-253): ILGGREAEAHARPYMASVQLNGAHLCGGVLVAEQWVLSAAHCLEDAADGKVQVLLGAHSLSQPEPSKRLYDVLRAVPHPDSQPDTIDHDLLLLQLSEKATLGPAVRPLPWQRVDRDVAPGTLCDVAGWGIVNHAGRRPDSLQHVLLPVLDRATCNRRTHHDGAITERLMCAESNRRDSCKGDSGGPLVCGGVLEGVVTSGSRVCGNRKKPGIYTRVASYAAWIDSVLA

| pIC50 | Structure (SMILES) |
| --- | --- |
| 7.89 | N[C@H](CCO)c1cccc(-c2cccc(COc3ccccc3CC(=O)O)c2)c1F [Example 190-J] |
| 7.26 | C[C@@H](N)c1cccc(-c2cc(CO)cc(COc3ccccc3CC(=O)O)c2)c1F [Example 120-B] |
| 7.80 | CCc1ccc(-c2cccc([C@@H](C)N)c2F)cc1COc1ccccc1CC(=O)O [Example 282-D, (R)-2-(2-((3′-(1-aminoethyl)-4-ethyl-2′-fluoro-[1,1′-biphenyl]-3-yl)methoxy)phenyl)acetic acid] |
| 8.10 | C[C@@H](N)c1cccc(-c2cc(COc3ccccc3CC(=O)O)cc(OCc3ccn(C)n3)c2)c1F [Example 214-E] |
| 7.00 | C[C@@H](N)c1cccc(-c2cccc(COc3ccccc3CC(=O)O)c2)c1F [Example 138-L] |
| 4.69 and 4.68 | O=C(O)Cc1ccccc1OCc1cccc(-c2cccc(-c3nnn[nH]3)c2)c1 [Example 191, 2-(2-((3′-(1H-Tetrazol-5-yl)-[1,1′-biphenyl]-3-yl)methoxy)phenyl)acetic acid] |
| 7.92 | N[C@H](CO)c1cc(-c2cccc(COc3ccccc3CC(=O)O)c2)ccn1 [Example 142-G] |
| 6.62 | N[C@H](CC1CC1)c1cccc(-c2cccc(COc3ccccc3CC(=O)O)c2)c1 [Example 196-I] |
| 7.15 | C[C@H](N)c1cccc(-c2cc(COc3ccccc3CC(=O)O)cc(OCCF)c2)c1F [Example 214-O] |
| 7.92 | C[C@@H](N)c1cccc(-c2cc(Br)cc(COc3ccccc3CC(=O)O)c2)c1F [Example 120-U] |
| 8.10 | C[C@@H](N)c1cccc(-c2cc(COc3ccccc3CC(=O)O)cc(OCCF)c2)c1F [Example 214-C] |
| 7.27 | CCC[C@@H](N)c1cccc(-c2cc(COc3ccccc3CC(=O)O)cc(-c3cnn(C)c3)c2)c1F [Example 203, (R)-2-(2-((3′-(1-Aminobutyl)-2′-fluoro-5-(1-methyl-1H-pyrazol-4-yl)-[1,1′-biphenyl]-3-yl)methoxy)phenyl)acetic acid] |
| 7.03 | COC(C)c1cc(COc2ccccc2CC(=O)O)cc(-c2cccc([C@@H](C)N)c2F)c1 (stereo partly shown) [Example 120-D] |
| 4.30 | Cc1c(-c2cccc(COc3ccccc3CC(=O)O)c2)cccc1[C@H](N)CO [Example 142-C] |
| 7.55 | NCc1cccc(-c2cccc(COc3ccccc3CC(=O)O)c2)n1 [Example 138-N] |
| 8.10 | CC(O)c1cc(COc2ccccc2CC(=O)O)cc(-c2cccc([C@@H](C)N)c2F)c1 (stereo partly shown) [Example 120-F] |
| 7.66 | C[C@@H](N)c1cccc(-c2cc(COc3ccccc3CC(=O)O)cc(OCC3(C)CC3)c2)c1F [Example 259-E, (R)-2-(2-((3′-(1-aminoethyl)-2′-fluoro-5-((1-methylcyclopropyl)methoxy)-[1,1′-biphenyl]-3-yl)methoxy)phenyl)acetic acid] |
| 6.67 | NC(CF)c1cccc(-c2cccc(COc3ccccc3CC(=O)O)c2)c1 (single isomer, unassigned; (-)) [Example 190-B (−), (−)-2-(2-((3′-(1-amino-2-fluoroethyl)-[1, 1′-biphenyl]-3-yl)methoxy)phenyl)acetic acid] |

Further lines, the compound ahead of its results:

| Structure (SMILES) | pIC50 |
| --- | --- |
| NCc1cccc(-c2cc(NCc3ccccc3)cc(C(=O)Nc3ccccc3CC(=O)O)n2)c1 [Example 53, 2-(2-(6-(3-(Aminomethyl)phenyl)-4-(benzylamino)picolinamido)phenyl)acetic acid] | 8.52 |
| C[C@@H](N)c1cccc(-c2ccc3c(c2)N(Cc2ccccc2CC(=O)O)CCC3)c1F [Example 219-D, (R)-2-(2-((7-(3-(1-Aminoethyl)-2-fluorophenyl)-3,4-dihydroquinolin-1(2H)-yl)methyl)phenyl)acetic acid] | 7.21 |
| NCc1cccc(-c2cccc(C#Cc3ccccc3CC(=O)O)c2)c1 [Example 16-C, 2-(2-((3′-(Aminomethyl)-[1,1′-biphenyl]-3-yl)ethynyl)phenyl)acetic acid] | 6.47 |
| NCc1cc(F)cc(-c2cccc(C(=O)Nc3ccc(Cl)cc3CC(=O)O)n2)c1 [Example 21-P] | 6.93 |
| COCCOc1cc(C(=O)Nc2ccccc2CC(=O)O)cc(-c2cccc(CN)c2)c1 [Example 72-B, 2-(2-(3′-(Aminomethyl)-5-(2-methoxyethoxy)-[1,1′-biphenyl]-3-ylcarboxamido)phenyl)acetic acid] | 7.24 |
| NCc1cccc(-c2cc(COc3ccccc3CC(=O)O)c3cn[nH]c3c2)c1 [Example 179, 2-(2-((6-(3-(Aminomethyl)phenyl)-1H-indazol-4-yl)methoxy)phenyl)acetic acid] | 8.40 |
| O=C(O)Cc1ccccc1OCc1cccc(-c2cccc(C3CCCN3)c2)c1 (stereo not shown) [Example 138-J] | 5.54 |
| CCc1ccc(NC(=O)c2cccc(-c3cc(F)cc(CN)c3)n2)c(CC(=O)O)c1 [Example 21-L] | 6.98 |
| NC(CCO)c1cccc(-c2cccc(C(=O)Nc3ccccc3CC(=O)O)c2)c1 (racemic) [Example 87, (±)-2-(2-(3′-(1-amino-3-hydroxypropyl)-[1,1′-biphenyl]-3-ylcarboxamido)phenyl)acetic acid] | 6.09 |
| Cc1ccc(CC(=O)O)c(NC(=O)c2cccc(-c3cc(F)cc(CN)c3)c2)c1 [Example 21-B] | 7.33 |
| C[C@@H](N)c1cccc(-c2cc(COc3ccccc3CC(=O)O)cc(OCc3cncn3C)c2)c1F [Example 214-Q] | 8.00 |
| CCNc1ccc(CC(=O)O)c(OCc2cccc(-c3cccc(CN)c3)c2)c1 [Example 294-E] | 6.31 |
| NCc1cccc(-c2ccc(-c3cccc(CN)c3)c(C(=O)Nc3ccccc3CC(=O)O)n2)c1 [Example 56-B, 2-(2-(3,6-bis(3-(Aminomethyl)phenyl)picolinamido)phenyl)acetic acid] | 6.93 |
| NCc1cccc(-c2cc(COc3ccccc3CC(=O)O)cc(OC[C@H]3CCCO3)c2)n1 [Example 138-M] | 8.30 |
| C[C@@H](N)c1cccc(-c2cc(COc3ccccc3CC(=O)O)cc(NCC3CCCO3)c2F)c1F (stereo partly drawn) [Example 222, 2-(2-((3′-((R)-1-aminoethyl)-2′,6-difluoro-5-(((tetrahydrofuran-2-yl)methyl)amino)-[1,1′-biphenyl]-3-yl)methoxy)phenyl)acetic acid] | 7.80 |
| C[C@@H](N)c1cccc(-c2cc(CCCF)cc(COc3ccccc3CC(=O)O)c2)c1 [Example 271, (R)-2-(2-((3′-(1-aminoethyl)-5-(3-fluoropropyl)-[1,1′-biphenyl]-3-yl)methoxy)phenyl)acetic acid] | 8.00 |

| Structure (SMILES) | pIC50 |
| --- | --- |
| NCc1cccc(-c2cccc(COc3ccc(Br)cc3CC(=O)O)c2)c1 [Example 168, 2-(2-((3′-(Aminomethyl)-[1,1′-biphenyl]-3-yl)methoxy)-5-bromophenyl)acetic acid] | 7.57 |
| C[C@@H](N)c1cccc(-c2cc(COc3ccccc3CC(=O)O)cc(CC3CCOCC3)c2)c1F [Example 246-C, (R)-2-(2-((3′-(1-aminoethyl)-2′-fluoro-5-((tetrahydro-2H-pyran-4-yl)methyl)-[1,1′-biphenyl]-3-yl)methoxy)phenyl)acetic acid] | > 9.00 |
| NCc1cccc(-c2cc(O)cc(C(=O)Nc3ccccc3CC(=O)O)c2)c1 [Example 59-C, 2-(2-(3′-(Aminomethyl)-5-hydroxy-[1,1′-biphenyl]-3-ylcarboxamido)phenyl)acetic acid] | 7.02 |
| C[C@@H](N)c1cccc(-c2cc(CCC3CCCN3C)cc(COc3ccccc3CC(=O)O)c2)c1F (stereo partly drawn) [Example 240-B, 2-(2-((3′-((R)-1-aminoethyl)-2′-fluoro-5-(2-(1-methylpyrrolidin-2-yl)ethyl)-[1,1′-biphenyl]-3-yl)methoxy)phenyl)acetic acid] | 6.96 |
| N[C@H](CO)c1cccc(-c2cc(CCCF)cc(COc3ccccc3CC(=O)O)c2)c1 [Example 272, (S)-2-(2-((3′-(1-amino-2-hydroxyethyl)-5-(3-fluoropropyl)-[1,1′-biphenyl]-3-yl)methoxy)phenyl)acetic acid] | 8.00 |
| C[C@@H](N)c1cccc(-c2cc(COc3ccccc3CC(=O)O)cc(C(C)(C)O)c2)c1 [Example 120-H] | 8.00 |
| NCc1cccc(-c2ccc3c(c2)C(Oc2ccccc2CC(=O)O)CCO3)c1 (single isomer, unassigned) [177 b) (tr = 3.2 min), (+) or (−)-2-(2-((6-(3-(aminomethyl)phenyl)chroman-4-yl)oxy)phenyl)acetic acid] | 8.40 |
| CCc1ccc(NC(=O)c2cc(NC[C@@H]3CCCO3)cc(-c3cc(F)cc(CN)c3)c2)c(CC(=O)O)c1 [Example 25-D, (S)-2-(2-(3′-(Aminomethyl)-5′-fluoro-5-(((tetrahydrofuran-2-yl)methyl)amino)-[1,1′-biphenyl]-3-ylcarboxamido)-5-ethylphenyl)acetic acid] | 7.96 |
| N[C@H](CO)c1cccc(-c2cc(OC[C@@H]3CCCO3)cc(C(=O)Nc3ccccc3CC(=O)O)c2)c1 [Example 81, 2-(2-(3′-((S)-1-Amino-2-hydroxyethyl)-5-(((S)-tetrahydrofuran-2-yl)methoxy)-[1,1′-biphenyl]-3-ylcarboxamido)phenyl)acetic acid] | 7.70 |
| N=C(N)c1cccc(-c2cccc(C(=O)Nc3ccccc3CC(=O)O)c2)c1 [Example 10-B, 2-(2-(3′-Carbamimidoyl-[1,1′-biphenyl]-3-ylcarboxamido)phenyl)acetic acid] | 6.40 |
| NCc1cccc(-c2cccc(OCc3ccccc3CC(=O)O)n2)c1 [Example 99-C, 2-(2-(((6-(3-(Aminomethyl)phenyl)pyridin-2-yl)oxy)methyl)phenyl)acetic acid] | 5.73 |
| NCc1cc(F)cc(-c2cccc(C(=O)Nc3cccc(Br)c3CC(=O)O)c2)c1 [Example 21-G] | 5.11 |
| CCc1sc(-c2cc(F)cc(CN)c2)nc1C(=O)Nc1ccccc1CC(=O)O [Example 36-C, 2-(2-(2-(3-(Aminomethyl)-5-fluorophenyl)-5-ethylthiazole-4-carboxamido)phenyl)acetic acid] | 7.44 |
| N#Cc1ccc(CC(=O)O)c(OCc2cccc(-c3cccc(CN)c3)c2)c1 [Example 294-B] | 7.40 |
| NCc1cccc(-c2ccc3c(c2)C(Oc2ccccc2CC(=O)O)CCC3)c1 (single isomer, unassigned) [175 b) (tr = 9.5 min), (−) or (+)-(2-((7-(3-(aminomethyl)phenyl)-1,2,3,4-tetrahydronaphthalen-1-yl)oxy)phenyl)acetic acid] | 6.60 |
